In ChEMBL document CHEMBL4043225, “Identification of potent, nonabsorbable agonists of the calcium-sensing receptor for GI-specific administration” (Bioorg Med Chem Lett, 2017):

Legend:
[1] = Half-life in Sprague-Dawley rat cecal homogenates at 10 uM by LC-MS/MS analysis; format: ADME, tissue-based, Caecum
[2] = target: T1, Extracellular calcium-sensing receptor (Homo sapiens, UniProt P41180); assay: (§1) Agonist activity at human CaSR expressed in HEK293 cells assessed as increase in intracellular calcium mobilization by fluo-4AM dye based FLIPR assay; format: functional, cell-based
T1 sequence (P41180 whole entry): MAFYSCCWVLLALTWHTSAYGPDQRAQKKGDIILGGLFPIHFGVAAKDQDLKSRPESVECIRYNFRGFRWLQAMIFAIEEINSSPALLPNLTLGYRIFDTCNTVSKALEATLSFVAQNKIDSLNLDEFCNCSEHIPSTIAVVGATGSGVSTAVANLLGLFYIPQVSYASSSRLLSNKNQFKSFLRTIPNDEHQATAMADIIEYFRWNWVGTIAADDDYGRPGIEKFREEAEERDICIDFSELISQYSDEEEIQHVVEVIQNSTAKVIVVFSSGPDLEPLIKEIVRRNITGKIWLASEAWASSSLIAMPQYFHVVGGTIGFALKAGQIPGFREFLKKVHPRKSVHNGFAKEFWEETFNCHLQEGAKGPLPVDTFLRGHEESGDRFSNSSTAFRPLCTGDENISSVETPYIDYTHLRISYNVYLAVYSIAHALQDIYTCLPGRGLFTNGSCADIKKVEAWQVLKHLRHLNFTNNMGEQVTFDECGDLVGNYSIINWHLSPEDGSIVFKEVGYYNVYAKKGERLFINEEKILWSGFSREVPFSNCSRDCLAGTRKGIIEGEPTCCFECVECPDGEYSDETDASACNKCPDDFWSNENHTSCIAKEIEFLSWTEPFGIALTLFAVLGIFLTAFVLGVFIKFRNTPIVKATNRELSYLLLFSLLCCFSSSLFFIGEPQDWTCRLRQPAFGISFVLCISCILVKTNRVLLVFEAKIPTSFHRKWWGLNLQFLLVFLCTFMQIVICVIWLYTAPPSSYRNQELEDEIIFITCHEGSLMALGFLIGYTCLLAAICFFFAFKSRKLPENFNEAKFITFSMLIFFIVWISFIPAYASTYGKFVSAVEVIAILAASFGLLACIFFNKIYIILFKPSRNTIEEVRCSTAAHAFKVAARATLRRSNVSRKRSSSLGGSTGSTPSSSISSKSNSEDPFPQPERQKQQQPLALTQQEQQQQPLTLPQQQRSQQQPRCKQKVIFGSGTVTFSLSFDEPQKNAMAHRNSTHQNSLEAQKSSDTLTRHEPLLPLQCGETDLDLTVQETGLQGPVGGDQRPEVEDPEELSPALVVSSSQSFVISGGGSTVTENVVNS

[3] = target: T2, Extracellular calcium-sensing receptor (Homo sapiens) (UniProt P41180); assay: as §1; format: functional, cell-based
T2 sequence (whole entry): T1 sequence (P41180 whole entry)

[4] = Cmax in CD rat portal vein at 30 mg/kg, po administered via gavage; format: ADME, organism-based; set-up: dose 30 mg/kg, route oral
[5] = Aqueous solubility of the compound in FASSIF; format: physicochemical
[6] = AUC in CD rat systemic circulation at 10 mg/kg, po administered via gavage; format: ADME, organism-based
[7] = target: T3, Extracellular calcium-sensing receptor (Mus musculus) (UniProt Q9QY96); assay: (§2) Agonist activity at mouse CaSR expressed in HEK293 cells assessed as increase in intracellular calcium mobilization by fluo-4AM dye based FLIPR assay; format: functional, cell-based
T3 sequence (whole entry): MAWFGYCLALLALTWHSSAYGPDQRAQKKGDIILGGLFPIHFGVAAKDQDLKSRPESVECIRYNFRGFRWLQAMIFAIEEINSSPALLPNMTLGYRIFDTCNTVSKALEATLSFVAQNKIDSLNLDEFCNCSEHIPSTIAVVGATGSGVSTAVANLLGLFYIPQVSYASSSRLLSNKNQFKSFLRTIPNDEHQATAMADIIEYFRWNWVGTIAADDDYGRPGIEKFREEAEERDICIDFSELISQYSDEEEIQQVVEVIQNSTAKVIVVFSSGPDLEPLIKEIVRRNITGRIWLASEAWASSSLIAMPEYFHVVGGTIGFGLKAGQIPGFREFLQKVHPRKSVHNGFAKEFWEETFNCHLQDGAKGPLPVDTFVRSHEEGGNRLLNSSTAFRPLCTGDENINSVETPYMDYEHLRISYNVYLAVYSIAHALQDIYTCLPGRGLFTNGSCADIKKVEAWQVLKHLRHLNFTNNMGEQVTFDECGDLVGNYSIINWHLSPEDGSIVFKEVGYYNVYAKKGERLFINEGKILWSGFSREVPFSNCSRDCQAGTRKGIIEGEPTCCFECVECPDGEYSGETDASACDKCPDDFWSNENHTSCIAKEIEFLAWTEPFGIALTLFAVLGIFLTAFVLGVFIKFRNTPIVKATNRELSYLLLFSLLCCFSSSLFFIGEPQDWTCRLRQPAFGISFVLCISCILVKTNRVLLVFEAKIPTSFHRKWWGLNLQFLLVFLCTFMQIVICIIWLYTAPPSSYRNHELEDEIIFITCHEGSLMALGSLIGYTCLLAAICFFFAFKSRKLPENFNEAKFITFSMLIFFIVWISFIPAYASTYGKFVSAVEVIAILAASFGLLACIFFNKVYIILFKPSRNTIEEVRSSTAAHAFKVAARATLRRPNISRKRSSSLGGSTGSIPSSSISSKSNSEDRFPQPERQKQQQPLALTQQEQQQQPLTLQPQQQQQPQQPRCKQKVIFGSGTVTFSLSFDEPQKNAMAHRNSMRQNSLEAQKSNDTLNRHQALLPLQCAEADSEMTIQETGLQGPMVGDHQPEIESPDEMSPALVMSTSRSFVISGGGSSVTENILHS

[8] = target: T4, Extracellular calcium-sensing receptor (Mus musculus, UniProt Q9QY96); assay: as §2; format: functional, cell-based
T4 sequence (Q9QY96 whole entry): T3 sequence (whole entry)

Rattus norvegicus [9] = assay: Unbound Cmax in CD rat portal vein at 10 mg/kg, po administered via gavage; format: ADME, organism-based; conditions: in vivo
[10] = Aqueous solubility of the compound in FESSIF; format: physicochemical
[11] = Aqueous solubility of the compound in SGF; format: physicochemical
[12] = target: T5, Extracellular calcium-sensing receptor (Rattus norvegicus) (UniProt P48442); assay: (§3) Agonist activity at rat CaSR expressed in HEK293 cells assessed as increase in intracellular calcium mobilization by fluo-4AM dye based FLIPR assay; format: functional, cell-based
T5 sequence (whole entry): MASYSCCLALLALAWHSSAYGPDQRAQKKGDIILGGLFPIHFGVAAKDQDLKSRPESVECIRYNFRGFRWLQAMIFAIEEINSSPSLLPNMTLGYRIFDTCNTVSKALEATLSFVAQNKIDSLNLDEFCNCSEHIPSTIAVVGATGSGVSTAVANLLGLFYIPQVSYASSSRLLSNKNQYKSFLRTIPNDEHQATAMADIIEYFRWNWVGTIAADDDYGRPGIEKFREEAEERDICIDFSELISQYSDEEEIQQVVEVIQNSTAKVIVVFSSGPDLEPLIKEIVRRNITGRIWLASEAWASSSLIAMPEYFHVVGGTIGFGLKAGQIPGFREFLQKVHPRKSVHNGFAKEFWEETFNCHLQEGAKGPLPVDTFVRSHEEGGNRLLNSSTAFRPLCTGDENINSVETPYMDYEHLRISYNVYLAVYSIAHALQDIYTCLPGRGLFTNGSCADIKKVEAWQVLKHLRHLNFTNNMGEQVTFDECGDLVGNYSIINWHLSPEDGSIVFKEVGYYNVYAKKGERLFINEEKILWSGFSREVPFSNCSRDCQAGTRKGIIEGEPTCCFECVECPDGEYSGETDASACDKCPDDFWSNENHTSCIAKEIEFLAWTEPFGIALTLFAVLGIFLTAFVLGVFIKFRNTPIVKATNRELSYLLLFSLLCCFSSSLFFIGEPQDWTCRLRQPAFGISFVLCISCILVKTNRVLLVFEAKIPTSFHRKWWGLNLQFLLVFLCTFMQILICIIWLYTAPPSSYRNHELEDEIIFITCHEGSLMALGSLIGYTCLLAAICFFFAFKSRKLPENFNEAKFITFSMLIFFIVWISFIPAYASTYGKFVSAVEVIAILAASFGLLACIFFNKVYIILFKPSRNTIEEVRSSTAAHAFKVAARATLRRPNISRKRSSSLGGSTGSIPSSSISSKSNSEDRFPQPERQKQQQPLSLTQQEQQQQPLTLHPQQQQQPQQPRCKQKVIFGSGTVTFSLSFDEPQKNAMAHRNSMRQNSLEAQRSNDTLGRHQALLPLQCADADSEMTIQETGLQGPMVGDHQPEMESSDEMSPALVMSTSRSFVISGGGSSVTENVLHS

[13] = target: T6, Extracellular calcium-sensing receptor (Rattus norvegicus, UniProt P48442); assay: as §3; format: functional, cell-based
T6 sequence (P48442 whole entry): T5 sequence (whole entry)

[14] = Drug recovery in CD rat feces at 30 mg/kg, po administered via gavage measured by LC-MS/MS analysis; format: ADME, organism-based; conditions: read-out: Drug recovery
[15] = Protein binding in CD rat plasma at 10 mg/kg, administered via gavage; format: ADME, organism-based; conditions: po, read-out: PPB (converted)
Rattus norvegicus [16] = assay: Unbound Cmax in CD rat systemic circulation at 10 mg/kg, po administered via gavage; format: ADME, organism-based; conditions: in vivo
[17] = AUC in CD rat portal vein at 10 mg/kg, po administered via gavage; format: ADME, organism-based
[18] = Cmax in CD rat systemic circulation at 30 mg/kg, po administered via gavage; format: ADME, organism-based; set-up: dose 30 mg/kg, route oral
[19] = Cmax in CD rat systemic circulation at 50 mg/kg, po administered via gavage; format: ADME, organism-based; set-up: dose 50 mg/kg, route oral
[20] = Cmax in CD rat portal vein at 50 mg/kg, po administered via gavage; format: ADME, organism-based; set-up: dose 50 mg/kg, route oral

SMILES | half-life at 10 µM [1] [h] | EC50 ([2]; read-out: pEC50 (converted)) [µM] | %max [3] [%] | also measured
C[C@@H](N[C@H]1CCN(c2ccc(C(=O)NCCCCNC(CO)(CO)CO)cc2)C1)c1cccc2ccccc12 | 8 | 0.0158 | 92 | Cmax [4]: 0.54 µg/mL; Cmax [18]: 0.44 µg/mL
C[C@@H](N[C@H]1CCN(c2ccc(S(=O)(=O)NCC(=O)O)cc2)C1)c1cccc2ccccc12 | > 12 | 0.0398 | 83 | Cmax [19]: 0.317 µg/mL; Cmax [20]: 1.12 µg/mL
C[C@@H](N[C@H]1CCN(c2ccc(S(=O)(=O)NC(=O)CCC(=O)O)cc2)C1)c1cccc2ccccc12 | 10.5 | 0.501 | 74 | –
C[C@@H](N[C@H]1CCN(c2ccc(C(=O)NCCn3cnc(C(=O)O)c3C(=O)O)cc2)C1)c1cccc2ccccc12 | 7.8 | 0.00501 | 96 | Cmax [4]: 0.006 µg/mL; dose excreted [14]: 54%; Cmax [18]: < 0.004 µg/mL
C[C@@H](N[C@H]1CCN(c2ccc(P(=O)(O)O)cc2)C1)c1cccc2ccccc12 | – | 3.16 | 70 | –
C[C@@H](N[C@H]1CCN(c2ccc(S(=O)(=O)NCCn3cnc(C(=O)O)c3C(=O)O)cc2)C1)c1cccc2ccccc12 | – | 0.00794 | 127 | –
C[C@@H](N[C@H]1CCN(c2ccc(S(=O)(=O)NC(=O)CC(=O)O)cc2)C1)c1cccc2ccccc12 | – | 1.58 | 79 | –
C[C@@H](N[C@H]1CCN(c2ccc(S(N)(=O)=O)cc2)C1)c1cccc2ccccc12 | > 12 | 0.02 | 87 | –
C[C@@H](N[C@H]1CCN(c2ccc(S(=O)(=O)NCCN(C)C)cc2)C1)c1cccc2ccccc12 | – | 0.0126 | 84 | –
C[C@@H](N[C@H]1CCN(c2ccc(C(=O)NCCNC(CO)(CO)CO)cc2)C1)c1cccc2ccccc12 | 3.4 | 0.00794 | 101 | –

The next lines start with results.

half-life at 10 µM [1] [h] | EC50 ([2]; read-out: pEC50 (converted)) [µM] | %max [3] [%] | SMILES | also measured
> 12 | 0.158 | 84 | C[C@@H](N[C@H]1CCN(c2ccc(C(=O)O)cc2)C1)c1cccc2ccccc12 | –
– | 0.0794 | 69 | C[C@@H](N[C@H]1CCN(c2ccc(C(=O)NCC(=O)O)cc2)C1)c1cccc2ccccc12 | –
> 12 | – | 84 to 93 | C[C@@H](N[C@H]1CCN(c2ccc(C(=O)NCCCN3CCC(C(=O)O)CC3)cc2)C1)c1cccc2ccccc12 | Cmax [4]: 0.057 µg/mL; solubility [5]: > 1 mg/mL; AUC [6]: 0.266 µg·h/mL; %max [7]: 62%; EC50 [8]: 0.251 µM; fCmax (Rattus norvegicus [9]): 7 nM; solubility [10]: > 1 mg/mL; solubility [11]: > 1 mg/mL; %max [12]: 66%; EC50 [13]: 0.316 µM; dose excreted [14]: 86.3%; fraction unbound [15]: 0.07; fCmax (Rattus norvegicus [16]): 3 ng/mL; EC50 ([2]; read-out: EC50): 0.05 µM; AUC [17]: 0.265 µg·h/mL; Cmax [18]: 0.048 µg/mL
9.1 | 0.398 | 79 | C[C@@H](N[C@H]1CCN(c2ccc(C(=O)N[C@H](CC(=O)O)C(=O)O)cc2)C1)c1cccc2ccccc12 | Cmax [4]: 0.012 µg/mL; dose excreted [14]: 65%; Cmax [18]: 0.009 µg/mL
4.3 | 0.1 | 96 | C[C@@H](N[C@H]1CCN(c2ccc(C(=O)N[C@H](CCCCN)C(=O)O)cc2)C1)c1cccc2ccccc12 | –
> 12 | 0.126 | 83 | C[C@@H](N[C@H]1CCN(c2ccc(C(=O)NCC[N+](C)(C)C)cc2)C1)c1cccc2ccccc12.[Cl-] | Cmax [19]: 0.154 µg/mL; Cmax [20]: 0.164 µg/mL
> 12 | 0.0398 | 80 | C[C@@H](N[C@H]1CCN(c2ccc(C(=O)NC(CO)(CO)CO)cc2)C1)c1cccc2ccccc12 | –
0.8 | 0.0398 | 85 | C[C@@H](N[C@H]1CCN(c2ccc(C(=O)NCCS(=O)(=O)O)cc2)C1)c1cccc2ccccc12 | –
– | 0.0126 | 75 | C[C@@H](N[C@H]1CCN(c2ccc(C(=O)NCCN)cc2)C1)c1cccc2ccccc12 | –
